# “Also recorded” adds a separate entry of the source.
# Legend:
# Format in all cases: in vivo
# [1] = system: Vi/Vc zone of the medulla oblongata; assay: Measurement of c-Fos positive cell count in the Vi/Vc zone of the medulla oblongata, rat scopolamine-induced dry eye model; conditions: 0.3 w/v % suspension eye drop
# Experimental: 5 μL of eye drop was administered to the right eye using a micropipette, 4 times a day with an interval of 2 hours or longer. A vehicle eye drop was administered to the Sham group.
# After a rat was allowed to bleed to death by perfusion of saline, Zamboni's Fixative was perfused to extract the medulla oblongata. After sectioning the extracted medulla oblongata, the medulla oblongata was stained by immunohistochemical staining by using an anti-c-Fos antibody (product name: Rabbit Anti-Human c-Fos Polyclonal Antibody, sc-52, Santa Cruz Biotechnology, Inc.).
# [2] = system: rat scopolamine-induced dry eye model; assay: Observation of superficial punctate keratitis (SPK) in a rat scopolamine-induced dry eye model
# Experimental: (§1) 1.0 w/v % compound (1) suspension eye drop was administered for an extended period using a rat scopolamine-induced dry eye model prepared by the same method as Test Example 2. The model was treated under a low humidity environment (20% RH or less) only when measuring the number of blinks.
# (§2) 5 μL of 1.0 w/v % compound (1) suspension eye drop and vehicle eye drop was administered to the right eye 4 times a day by using a micropipette.
# (§3) An effect of improving SPK (SPK score) was evaluated by the same method as Test Example 1 on day 8 of sample administration. The number of blinks of the right eye was measured for 5 minutes under a low humidity environment after 4 hours from the initial administration on day 7 of administration (2 weeks post-surgery) by the same method as Text Example 2.
# [3] = system: rat scopolamine-induced dry eye model; assay: Number of blinks under a low humidity environment in a rat scopolamine-induced dry eye model; conditions: for number of blinks within 5 minutes / number of blinks within 5 minutes vs vehicle at 0.5 hours: single administration; for number of blinks within 5 minutes: 0.5 hours after
# Experimental: Compound (1) was used as a tested substance. In the same manner as Test Example 1, compound (1) was suspended in a buffer to prepare suspension eye drops with a concentration of compound (1) of 0.1 w/v %, 0.3 w/v %, and 1.0 w/v %. A compound (1)-free vehicle eye drop consisting of only a vehicle was also prepared as a control group.
# A rat scopolamine-induced dry eye model was prepared by the same method as Test Example 1.
# After about 2.5 hours from implanting an osmotic pump, dry air supplied from an air compressor was sent into an experiment chamber (SJ-1500N, Natsume Seisakusho) to create a low humidity environment (20% RH or lower).
# 5 μL of a vehicle eye drop or 0.1 w/v %, 0.3 w/v %, or 1.0 w/v % compound (1) suspension eye drop was administered once to the right eye using a micropipette, 0.5 hours before measuring the number of blinks.
# After 8 days or more from starting raising the rats in a low humidity environment, the rats were taken out from a breeding cage. The animals were placed in a cage comprised of chain link fencing on all sides (behavior measurement environment cage) to facilitate measurement of the number of blinks. After acclimation for 0.5 hours under a normal environment, the behavior measurement environment cage was transferred to an experiment chamber, and the number of blinks of the right eye of rats was measured for 5 minutes under a low humidity environment. A test was conducted in four separate phases using the same animals after a drug withdrawal period of 2 days or more (crossover test).
# By using the same evaluation method as Text Example 2, the sustainability of an effect of improving a subjective symptom was examined.
# as §1, §2, §3
structure (smiles),measurement,setting,value
"O=C(/C=C1\CCOc2cc(C(F)(F)F)ccc21)Nc1cccc2c1C[C@H](O)CC2 [compound (1), (E)-2-(7-trifluoromethylchroman-4-ylidene)-N-((7R)-7-hydroxy-5,6,7,8-tetrahydronaphthalen-1-yl)acetamide]",c-Fos positive cell count in the Vi/Vc zone of the medulla oblongata compared to a vehicle eye drop,[1]; 14 days of administration,reduced
same,c-Fos positive cell count,"[1]; SCOP model, 5 μL right eye 4 times a day for 14 days, Vi/Vc zone, 22 days post-surgery",8.8 ± 3.8 cells/section
same,SPK score compared to a vehicle eye drop,"[2]; 0.3 w/v % suspension eye drop, after 7 days from administration (15 days post-surgery)",significantly reduced
same,SPK score effect compared to a vehicle eye drop,"[2]; 0.3 w/v % suspension eye drop, after 14 days from administration (22 days post-surgery)",sustained
same,SPK score compared to a vehicle eye drop,"[2]; 1.0 w/v % suspension eye drop, 4 times a day, 8 days of repeated administration (Example 4)",significantly reduced
same,number of blinks within 5 minutes,"[3]; 0.1 w/v % suspension eye drop, low humidity",reduced
same,number of blinks within 5 minutes,"[3]; 0.3 w/v % suspension eye drop, low humidity",significant effect
same,number of blinks within 5 minutes compared to a vehicle eye drop,"[3]; 1.0 w/v % suspension eye drop, repeated administration 4 times a day, 4 hours after initial administration on day 7, low humidity (Example 4)",reduced
same,number of blinks within 5 minutes,"[3]; 1.0 w/v % suspension eye drop, low humidity (Test Example 2)",significant effect
same,number of blinks within 5 minutes vs vehicle at 0.5 hours,"[3]; 1.0 w/v % suspension eye drop, after 0.5 hours (Example 3)",significantly reduced; also recorded: reduced significantly
same,number of blinks within 5 minutes vs vehicle at 0.5 hours,"[3]; 1.0 w/v % suspension eye drop, after 4 hours (Example 3)",significantly reduced; also recorded: reduced significantly
same,number of blinks within 5 minutes vs vehicle at 0.5 hours,"[3]; 1.0 w/v % suspension eye drop, after 8 hours (Example 3)",reduced
